Series [1] has as its target T1, LC3A (Homo sapiens, UniProt Q9H492).
T1 construct: made in house
The experiment in a line: Binding of radiolabeled individual peptide fusions to immobilized LC3A. The note with it: for Binding analysis of clones on immobilized LC3 (FIG. 3E): radiolabeled peptide fusions. On the procedure:
A randomized 8-mer peptide library (with a diversity of 3.78×10^10 unique sequences) was designed, and SUPR peptide mRNA display selections incorporating N-methyl alanine and proteinase-K screening were performed against recombinant LC3 (FIGS. 3A-E). For this, milligram quantities of His6-LC3A were bacterially expressed and purified, chemically biotinylated, and immobilized on streptavidin agarose resin for binding selection. Prior to each round of selection, mRNA-fusion libraries were translated using an in vitro rabbit reticulocyte lysate system incorporating amber-codon nonsense suppression with N-methyl alanine. Fusions were cyclized between the side chain of lysine and the N-terminus and briefly exposed to proteinase K to eliminate any sequences particularly susceptible to proteolysis. Binding selections were carried out by incubating mRNA display libraries with the immobilized His6-LC3A followed by elution in SDS and PCR amplification. After seven rounds of binding selection, the number of PCR cycles required to recover the enriched dsDNA after each binding selection had reduced by 40% (FIG. 3C). […] Over 90% of sequences in the library contained an N-methyl alanine residue at a conserved position adjacent to the fixed lysine residue. […] The majority of sequences contained variations of the canonical Autophagy-Interacting Motif observed in natural LC3 adaptor proteins (FIG. 4). […] Binding was confirmed by incubation of radiolabeled individual peptide fusions with immobilized LC3A (FIG. 3E; Table 2).

Series [2] concerns OVCAR8 cells. The settings on record: 50 μM peptide; for cell viability (MTT), DIRAS3-induced (autophagic) cells: OVCAR8, Dox-induced, 72 hours. On the procedure: (§1) FIGS. 6A-D: SUPR4B in the DIRAS3 autophagy model. FIGS. 6A&B—MTT viability assays with 50 M linear and cyclic SUPR 4B on non-DIRAS3 induced OVCAR8 (FIG. 6B) and SKOv3 (FIG. 6A) cells. […] Induction was performed using 1 g/mL DOX.
(§2) FIGS. 8A-F: SUPR4B in the DIRAS3 autophagy model. […] Inhibition of autophagy by the present compound were hypothesized to restore cellular growth. […] FIGS. 8A&B—MTT viability assays with 50 M linear and cyclic SUPR on non-DIRAS3 induced OVCAR8 (FIG. 8A) and SKOv3 (FIG. 8B) cells. […] FIGS. 8C&D—MTT viability assays on the effect of 50 M linear and cyclic LC3 SUPR4B on DIRAS3-induced OVCAR8 (FIG. 8C) and SKOv3 (FIG. 8D) cells. Induction was performed using 1 g/mL DOX.
(§3) After selection, the library was sequenced and lead compounds were subjected to thermodynamic and cellular assays to develop a structure-activity relationship modeling the interaction between the SUPR peptide and the target.

For series [3], the system named is SKOv3 cells. The experiment in a line: MTT viability assay in DIRAS3 autophagy model. The settings on record: 50 μM peptide; for cell viability (MTT), DIRAS3-induced (autophagic) cells: SKOv3, Dox-induced, 72 hours. The procedure: as §1, §2, §3
(Tetrazolium assays rely on reduction of a dye to a coloured formazan, in cell work by metabolically active cells.)

Series [4] has as its system OVCAR8-ARHI cells. Kind of series: Western blotting of p62 and LC3I/LC3II in DIRAS3-induced cells. The format is cell-based. The note with it: peptide-treated, 72 h. The procedure: (§4) FIGS. 7A-B: SUPR4B in the DIRAS3 autophagy model.
(§5) FIGS. 8A-F: SUPR4B in the DIRAS3 autophagy model. […] Induction was performed using 1 g/mL DOX.
In general terms: In western blotting, separated proteins are transferred to a membrane and probed.

Series [5] relates to SKOv3-ARHI cells. Described as above. Type of series: cell-based. The note with it: peptide-treated, 72 h. On the procedure:
as §4, §5

Series [6] concerns OVCAR8 orthotopic ovarian tumors. Kind of series: Orthotopic ovarian tumor model with carboplatin. The note with it: mice, IP OVCAR8; three times per week for four weeks; SUPR peptide 10 mg/kg or carboplatin 25 mg/kg. Type of series: in vivo. On the procedure: FIG. 13: SUPR4B1W sensitizes orthotopic ovarian tumors to carboplatin treatment. Mice were injected IP with 2 million OVCAR8 cells and treated three times per week for four weeks with vehicle control, SUPR peptide (10 mg/kg), carboplatin (25 mg/kg), or combination of SUPR peptide and carboplatin. At the end of four weeks, mice were sacrificed and tumors were dissected. […] For each vertical groups of data points, the top group represents Mouse Weight and the bottom group represents Tumor Weight.
In animal model experiments, mice were implanted with a cisplatin-resistant ovarian cancer cell line (OVCAR8) and treated with carboplatin, SUPR4B1W peptide, or carboplatin+SUPR4B1W peptide for 4 weeks. At the conclusion of the study, the mice were sacrificed and the mass of the intraperitoneal tumors measured.

“Also recorded” adds a separate entry of the source. Numbered stars: 1 amine (or outer) side, 2 acyl side, 3 side chain; on linkers, the order of the positions; unused ones are H or OH. Bridge positions count the residues as written; N and C are the ends. Square brackets hold non-standard residues; d marks the D form. Ends that are not written are not given here. Peptide text beside a SMILES is read from it. Glutaryl = O=C(CCCC(=O)[*:2])[*:1]; NMeA = CN[C@@H](C)C(=O)O

The source of these data is US12569536B2, “Macrocyclic peptides for targeted inhibition of autophagy” (Board of Regents, The University of Texas System, priority 2019, dated 2026).

On to `CSCC[C@@H]1NC(=O)CCCC(=O)NCCCC[C@@H](C(=O)O)NC(=O)[C@H](C)N(C)C(=O)[C@H](C)NC(=O)[C@H]([C@@H](C)O)NC(=O)[C@H](C(C)C)NC(=O)[C@H](CCCNC(=N)N)NC(=O)[C@H](Cc2c[nH]cn2)NC(=O)[C@@H]2CCCN2C(=O)[C@H](Cc2ccccc2)NC1=O` [Clone 4B, MFPHRVTAZK] (MFPHRVTA[NMeA]K-OH; linker N-10 via Glutaryl), for which the “Binding analysis of clones on immobilized LC3 (FIG. 3E)” value (from here on “Binding analysis of clones”) in series [1] is “selective LC3 binding; also recorded: nearly quantitative binding”. The “cell viability (MTT), DIRAS3-induced (autophagic) cells” value in series [2] and in series [3] was “significant rescue of viability” each time. For the same compound, the “cell viability (MTT), non-DIRAS3 induced cells” value in series [2] (OVCAR8, no Dox (non-autophagic), up to 72 hours) was “no statistically significant effect on cell viability”; in series [3] (SKOv3, no Dox (non-autophagic), up to 72 hours), “no statistically significant effect on cell viability”. Further, the LC3I/LC3II ratio entry in series [4] and in series [5] was “decreased LC3I/LC3II ratio” in each case. The p62 protein levels result in series [4] and in series [5] was “increase in p62 protein levels” throughout.
Consider `N.N.O=C([O-])C1(C(=O)[O-])CCC1.[Pt+2]` [carboplatin, reference compound], for which the “final tumor mass, agent administered alone” value in series [6] is listed as “expected reduction in tumor volume”.
Turning to `CCN(CC)CCCC(C)Nc1ccnc2cc(Cl)ccc12` (stereo not shown) [chloroquine, reference compound], the “cell viability (MTT), DIRAS3-induced (autophagic) cells” value in series [2] and in series [3] was “did not result in a statistically significant increase in cell viability” each time.
Turning to “MFSHRVTLZK (MFSHRVTL[NMeA]K; bridge N-10) [Clone 25C]”, the “Binding analysis of clones” value in series [1] was “selective LC3 binding”.
Consider “MLARSLRDZK (MLARSLRD[NMeA]K; bridge N-10) [Clone 25I]”, for which, in series [1], the “% of radiolabeled peptide-fusions bound to immobilized LC3” value (“% of radiolabeled peptide-fusions bound” for short) amounted to 4%.
Consider MLSDIPVNDK [Clone 4E], for which the “Binding analysis of clones” value in series [1] is “selective LC3 binding”.
Regarding “MNARSLRDZK (MNARSLRD[NMeA]K; bridge N-10) [Clone 25F]”, in series [1], the “Binding analysis of clones” value is recorded as “selective LC3 binding”.
Turning to “MSLHRVTVZK (MSLHRVTV[NMeA]K; bridge N-10) [Clone 4C]”, the “% of radiolabeled peptide-fusions bound” value in series [1] is 1%.
As for “MYARSLRDZK (MYARSLRD[NMeA]K; bridge N-10) [Clone 25A]”, the “Binding analysis of clones” value in series [1] is reported as “selective LC3 binding”.
In the case of “MYTRRVRLZK (MYTRRVRL[NMeA]K; bridge N-10) [Clone 25E]”, the “% of radiolabeled peptide-fusions bound” value in series [1] is 3%.
